From patent US10576062B2, “Carbamoyloxymethyl triazole cyclohexyl acids as LPA antagonists” (Bristol-Myers Squibb Company, priority 2016, dated 2020)

Each molecule was assayed against T1, human LPA1 (Homo sapiens, UniProt Q92633) (assay: LPA1 functional antagonist assay (LPA-induced calcium flux)). Conditions: CHO cells overexpressing human LPA1; inhibition of calcium flux induced by 10 nM LPA; read-out: hLPA1 IC50.
T1 construct: expressed in transfected cells; host or cells: Chinese hamster ovary (CHO) cells
T1 sequence (Q92633 whole entry): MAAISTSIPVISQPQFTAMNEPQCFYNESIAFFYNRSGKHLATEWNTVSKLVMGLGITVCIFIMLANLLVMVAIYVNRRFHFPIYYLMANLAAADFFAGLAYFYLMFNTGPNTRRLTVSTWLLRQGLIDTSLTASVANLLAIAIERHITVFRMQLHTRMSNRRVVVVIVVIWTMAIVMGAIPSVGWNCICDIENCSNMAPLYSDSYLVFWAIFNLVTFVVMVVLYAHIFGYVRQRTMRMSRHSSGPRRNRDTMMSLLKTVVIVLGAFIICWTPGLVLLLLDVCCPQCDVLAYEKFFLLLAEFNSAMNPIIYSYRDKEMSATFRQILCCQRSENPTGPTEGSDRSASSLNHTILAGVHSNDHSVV
Type: cell-based
Experimental: The effectiveness of compounds of the present invention as LPA1 inhibitors can be determined in an LPA1 functional antagonist assay as follows: Chinese hamster ovary cells overexpressing human LPA1 were plated overnight (15,000 cells/well) in poly-D-lysine coated 384-well microplates (Greiner bio-one, Cat #781946) in DMEM/F12 medium (Gibco, Cat #11039). Following overnight culture, cells were loaded with calcium indicator dye (AAT Bioquest Inc, Cat #34601) for 30 minutes at 37° C. The cells were then equilibrated to room temperature for 30 minutes before the assay. Test compounds solubilized in DMSO were transferred to 384 well non-binding surface plates (Corning, Cat #3575) using the Labcyte Echo acoustic dispense and diluted with assay buffer [1×HBSS with calcium/magnesium (Gibco Cat #14025-092), 20 mM HEPES (Gibco Cat #15630-080) and 0.1% fatty acid free BSA (Sigma Cat #A9205)] to a final concentration of 0.5% DMSO. Diluted compounds were added to the cells by FDSS6000 (Hamamatsu) at final concentrations ranging from 0.08 nM to 5 μM. and were then incubated for 20 min at room temperature at which time LPA (Avanti Polar Lipids Cat #857130C) was added at final concentrations of 10 nM to stimulate the cells. […] IC50 values were determined by fitting data to a 4-parameter logistic equation (GraphPad Prism, San Diego Calif.).

| IC50 | Structure (SMILES) |
| --- | --- |
| 384 nM | CC(OC(=O)N(C)CC1CCC1)c1c(-c2ccc(O[C@H]3CCC[C@H](C(=O)O)C3)cc2)nnn1C (mixture of isomers) [Example 12, (1S,3S)-3-(4-(5-(1-(((cyclobutylmethyl)(methyl)carbamoyl)oxy)ethyl)-1-methyl-1H-1,2,3-triazol-4-yl)phenoxy)cyclohexane-1-carboxylic Acid] |

Same assay, conditions: human LPA1; read-out: hLPA1 IC50

| Structure (SMILES) | IC50 |
| --- | --- |
| Cc1nc(-c2nnn(C)c2COC(=O)N2CCC(C(C)C)C2)ccc1O[C@H]1CCC[C@H](C(=O)O)C1 (mixture of isomers) [Example 163, (1S,3S)-3-((6-(5-(((3-isopropylpyrrolidine-1-carbonyl)oxy)methyl)-1-methyl-1H-1,2,3-triazol-4-yl)-2-methylpyridin-3-yl)oxy)cyclohexane-1-carboxylic acid] | 104 nM |
| Cc1nc(-c2nnn(C)c2COC(=O)N2CCC(C3CC3)C2)ccc1O[C@H]1CCC[C@H](C(=O)O)C1 (mixture of isomers) [Example 164, (1S,3S)-3-((6-(5-(((3-cyclopropylpyrrolidine-1-carbonyl)oxy)methyl)-1-methyl-1H-1,2,3-triazol-4-yl)-2-methylpyridin-3-yl)oxy)cyclohexane-1-carboxylic acid] | 83 nM |

Now from value to molecule:

| IC50 | Structure (SMILES) |
| --- | --- |
| 178 nM | Cc1nc(-c2nnn(C)c2COC(=O)N2CCCC(C)C2)ccc1O[C@H]1CCC[C@H](C(=O)O)C1 (mixture of isomers) [Example 161, (1S,3S)-3-((2-methyl-6-(1-methyl-5-(((3-methylpiperidine-1-carbonyl)oxy)methyl)-1H-1,2,3-triazol-4-yl)pyridin-3-yl)oxy)cyclohexane-1-carboxylic acid] |
| 102 nM | CCC1CCN(C(=O)OCc2c(-c3ccc(O[C@H]4CCC[C@H](C(=O)O)C4)c(C)n3)nnn2C)C1 (mixture of isomers) [Example 165, (1S,3S)-3-((6-(5-(((3-ethylpyrrolidine-1-carbonyl)oxy)methyl)-1-methyl-1H-1,2,3-triazol-4-yl)-2-methylpyridin-3-yl)oxy)cyclohexane-1-carboxylic acid] |

Same assay, conditions: read-out: hLPA1 IC50

| Structure (SMILES) | IC50 |
| --- | --- |
| CCCC(C)N(C)C(=O)OCc1c(-c2ccc(O[C@H]3CCC[C@H](C(=O)O)C3)c(C)n2)nnn1C (mixture of isomers) [Example 31, (1S,3S)-3-((2-methyl-6-(1-methyl-5-(((methyl(pentan-2-yl)carbamoyl)oxy)methyl)-1H-1,2,3-triazol-4-yl)pyridin-3-yl)oxy)cyclohexane-1-carboxylic acid] | 36 nM |
| CCCC(C)N(C)C(=O)OCc1c(-c2ccc(O[C@H]3CCC[C@H](C(=O)O)C3)c(C)c2)nnn1C (mixture of isomers) [Example 39, (1S,3S)-3-(2-methyl-4-(1-methyl-5-(((methyl(pentan-2-yl)carbamoyl)oxy)methyl)-1H-1,2,3-triazol-4-yl)phenoxy)cyclohexane-1-carboxylic acid] | 23 nM |
| CCCC(C)N(C)C(=O)OCc1c(-c2ccc(O[C@H]3CCC[C@H](C(=O)O)C3)cc2)nnn1C (mixture of isomers) [Example 57, trans-3-(4-(1-methyl-5-(((methyl(pentan-2-yl)carbamoyl)oxy)methyl)-1H-1,2,3-triazol-4-yl)phenoxy)cyclohexane-1-carboxylic acid] | 142 nM |
| CC(C1CC1)N(C)C(=O)OCc1c(-c2ccc(O[C@H]3CCC[C@H](C(=O)O)C3)cc2)nnn1C (mixture of isomers) [Example 65, trans-3-(4-(5-((((1-cyclopropylethyl)(methyl)carbamoyl)oxy)methyl)-1-methyl-1H-1,2,3-triazol-4-yl)phenoxy)cyclohexane-1-carboxylic acid] | 80 nM |
| Cc1nc(-c2nnn(C)c2COC(=O)N2CCCC2CC(C)C)ccc1O[C@H]1CCC[C@H](C(=O)O)C1 (mixture of isomers) [Example 153, (1S,3S)-3-((6-(5-(((2-isobutylpyrrolidine-1-carbonyl)oxy)methyl)-1-methyl-1H-1,2,3-triazol-4-yl)-2-methylpyridin-3-yl)oxy)cyclohexane-1-carboxylic acid] | 163 nM |
| Cc1nc(-c2nnn(C)c2COC(=O)N2CCCC2C(F)(F)F)ccc1O[C@H]1CCC[C@H](C(=O)O)C1 (mixture of isomers) [Example 154, (1S,3S)-3-((2-methyl-6-(1-methyl-5-(((2-(trifluoromethyl)pyrrolidine-1-carbonyl)oxy)methyl)-1H-1,2,3-triazol-4-yl)pyridin-3-yl)oxy)cyclohexane-1-carboxylic acid] | 321 nM |
| Cc1nc(-c2nnn(C)c2COC(=O)N2CCC2C)ccc1O[C@H]1CCC[C@H](C(=O)O)C1 (mixture of isomers) [Example 157, (1S,3S)-3-((2-methyl-6-(1-methyl-5-(((2-methylazetidine-1-carbonyl)oxy)methyl)-1H-1,2,3-triazol-4-yl)pyridine-3-yl)oxy)cyclohexane-1-carboxylic acid] | 529 nM |

Results, then the molecule that gave them:

| IC50 | Structure (SMILES) |
| --- | --- |
| 28 nM | Cc1nc(-c2nnn(C)c2COC(=O)N(C)C(C)C2CCC2)ccc1O[C@H]1CCC[C@H](C(=O)O)C1 (mixture of isomers) [Example 20, (1S,3S)-3-((6-(5-((((1-cyclobutylethyl)(methyl)carbamoyl)oxy)methyl)-1-methyl-1H-1,2,3-triazol-4-yl)-2-methylpyridin-3-yl)oxy)cyclohexane-1-carboxylic acid] |
| 47 nM | CCCC(C)N(C)C(=O)OCc1c(-c2ccc(O[C@H]3CCC[C@H](C(=O)O)C3)cn2)nnn1C (mixture of isomers) [Example 24, (1S,3S)-3-((6-(1-methyl-5-(((methyl(pentan-2-yl)carbamoyl)oxy)methyl)-1H-1,2,3-triazol-4-yl)pyridin-3-yl)oxy)cyclohexane-1-carboxylic acid] |
| 25 nM | CCCC(C)N(C)C(=O)OCc1c(-c2ccc(O[C@H]3CCC[C@H](C(=O)O)C3)c(F)c2)nnn1C (mixture of isomers) [Example 28, (1S,3S)-3-(2-fluoro-4-(1-methyl-5-(((methyl(pentan-2-yl)carbamoyl)oxy)methyl)-1H-1,2,3-triazol-4-yl)phenoxy)cyclohexane-1-carboxylic acid] |
| 20 nM | CC(C1CC1)N(C)C(=O)OCc1c(-c2ccc(O[C@H]3CCC[C@H](C(=O)O)C3)c(F)c2)nnn1C (mixture of isomers) [Example 45, (1S,3S)-3-(4-(5-((((1-cyclopropylethyl)(methyl)carbamoyl)oxy)methyl)-1-methyl-1H-1,2,3-triazol-4-yl)-2-fluorophenoxy)cyclohexane-1-carboxylic acid] |
| 19 nM | CC(C1CCC1)N(C)C(=O)OCc1c(-c2ccc(O[C@H]3CCC[C@H](C(=O)O)C3)cc2)nnn1C (mixture of isomers) [Example 54, (1S,3S)-3-(4-(5-((((1-cyclobutylethyl)(methyl)carbamoyl)oxy)methyl)-1-methyl-1H-1,2,3-triazol-4-yl)phenoxy)cyclohexane-1-carboxylic acid] |
| 320 nM | CCC(C)N(C)C(=O)OCc1c(-c2ccc(O[C@H]3CCC[C@H](C(=O)O)C3)cc2)nnn1C (mixture of isomers) [Example 68, (trans)-3-(4-(5-(((sec-butyl(methyl)carbamoyl)oxy)methyl)-1-methyl-1H-1,2,3-triazol-4-yl)phenoxy)cyclohexane-1-carboxylic acid] |
| 144 nM | CCC(C1CCC1)N(C)C(=O)OCc1c(-c2ccc(O[C@H]3CCC[C@H](C(=O)O)C3)c(C)n2)nnn1C (mixture of isomers) [Example 99, (1S,3S)-3-((6-(5-((((1-cyclobutylpropyl)(methyl)carbamoyl)oxy)methyl)-1-methyl-1H-1,2,3-triazol-4-yl)-2-methylpyridin-3-yl)oxy)cyclohexane-1-carboxylic acid] |
| 250 nM | Cc1nc(-c2nnn(C)c2COC(=O)N2CCC(C)C2)ccc1O[C@H]1CCC[C@H](C(=O)O)C1 (mixture of isomers) [Example 147, (1S,3S)-3-((2-methyl-6-(1-methyl-5-(((3-methylpyrrolidine-1-carbonyl)oxy)methyl)-1H-1,2,3-triazol-4-yl)pyridin-3-yl)oxy)cyclohexane-1-carboxylic acid] |
| 91 nM | Cc1nc(-c2nnn(C)c2COC(=O)N2CCC(CC3CC3)C2)ccc1O[C@H]1CCC[C@H](C(=O)O)C1 (mixture of isomers) [Example 150, (1S,3S)-3-((6-(5-(((3-(cyclopropylmethyl)pyrrolidine-1-carbonyl)oxy)methyl)-1-methyl-1H-1,2,3-triazol-4-yl)-2-methylpyridin-3-yl)oxy)cyclohexane-1-carboxylic acid] |
| 101 nM | Cc1nc(-c2nnn(C)c2COC(=O)N2CCC(CC(C)C)C2)ccc1O[C@H]1CCC[C@H](C(=O)O)C1 (mixture of isomers) [Example 151, (1S,3S)-3-((6-(5-(((3-isobutylpyrrolidine-1-carbonyl)oxy)methyl)-1-methyl-1H-1,2,3-triazol-4-yl)-2-methylpyridin-3-yl)oxy)cyclohexane-1-carboxylic acid] |
| 157 nM | CCC1CCCN1C(=O)OCc1c(-c2ccc(O[C@H]3CCC[C@H](C(=O)O)C3)c(C)n2)nnn1C (mixture of isomers) [Example 152, (1S,3S)-3-((6-(5-(((2-ethylpyrrolidine-1-carbonyl)oxy)methyl)-1-methyl-1H-1,2,3-triazol-4-yl)-2-methylpyridin-3-yl)oxy)cyclohexane-1-carboxylic acid] |
